Molecular target: T1, hSTING (Homo sapiens, UniProt Q86WV6, G230A/H232R/R293Q/R71H)
T1 construct: host or cells: THP1-Dual KO-IFNAR2 cells
Assay: STING reporter assay (luciferase) in THP1-Dual KO-IFNAR2 cells stimulated with 2′3′cGAMP
Assay type: cell-based
Settings: 15 μM 2′3′cGAMP, 24 h, class symbols
Method: STING pathway activation by the compounds described herein was measured using THP1-Dual™ cells (KO-IFNAR2).
THP1-Dual™ KO-IFNAR2 Cells (obtained from invivogen) were maintained in RPMI, 10% FCS, 5 ml P/S, 2 mM L-glut, 10 mM Hepes, and 1 mM sodium pyruvate. Compounds were spotted in empty 384 well tissue culture plates (Greiner 781182) by Echo for a final concentration of 0.0017-100 μM. Cells were plated into the TC plates […], 2×10E6 cells/mL. For activation with STING ligand, 2′3′cGAMP (MW 718.38, obtained from Invivogen), was prepared in Optimem media.
The following solutions were prepared for each 1×384 plate: • Solution A: 2 mL Optimem with one of the following stimuli: • 60 μL of 10 mM 2′3′cGAMP->150 μM stock • Solution B: 2 mL Optimem with 60 μL Lipofectamine 2000->Incubate 5 min at RT
2 mL of solution A and 2 ml Solution B was mixed and incubated for 20 min at room temperature (RT). 20 uL of transfection solution (A+B) was added on top of the plated cells, with a final 2′3′cGAMP concentration of 15 μM. The plates were then centrifuged immediately at 340 g for 1 minute, after which they were incubated at 37° C., 5% CO2, >98% humidity for 24 h. Luciferase reporter activity was then measured. EC50 values were calculated by using standard methods known in the art.
Luciferase reporter assay: 10 μL of supernatant from the assay was transferred to white 384-plate with flat bottom and squared wells. One pouch of QUANTI-Luc™ Plus was dissolved in 25 mL of water. 100 μL of QLC Stabilizer per 25 mL of QUANTI-Luc™ Plus solution was added. 50 μL of QUANTI-Luc™ Plus/QLC solution per well was then added. Luminescence was measured on a Platereader (e.g., Spectramax I3X (Molecular Devices GF3637001)).
Luciferase reporter activity was then measured. EC50 values were calculated by using standard methods known in the art.

T1 sequence (Q86WV6 whole entry R71H/G230A/H232R/R293Q): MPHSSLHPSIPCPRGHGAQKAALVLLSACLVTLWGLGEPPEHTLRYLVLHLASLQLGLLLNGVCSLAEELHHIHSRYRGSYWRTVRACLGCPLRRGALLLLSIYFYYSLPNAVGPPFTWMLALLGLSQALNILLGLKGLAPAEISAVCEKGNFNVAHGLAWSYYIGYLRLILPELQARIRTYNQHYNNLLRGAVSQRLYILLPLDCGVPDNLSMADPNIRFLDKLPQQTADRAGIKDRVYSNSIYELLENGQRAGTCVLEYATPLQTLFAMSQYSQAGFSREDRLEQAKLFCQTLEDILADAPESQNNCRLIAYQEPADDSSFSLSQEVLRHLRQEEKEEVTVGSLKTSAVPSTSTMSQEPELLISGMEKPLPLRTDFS

| SMILES | EC50 [µM] |
| --- | --- |
| O=C(Nc1c[nH]c2ncc(F)cc12)C(=O)N[C@H]1CCC2(CCCC2)C1 (single isomer, unassigned) [Compound 199] | 5 to 100 |
| CC(CNC(=O)C(=O)Nc1c[nH]c2cccnc12)Oc1ccc(C(F)(F)F)cc1 (stereo not shown) [Compound 137, N1-(1H-pyrrolo[3,2-b]pyridin-3-yl)-N2-(2-(4-(trifluoromethyl)phenoxy)propyl)oxalamide] | 5 to 100 |
| O=C(NCC12CC3CC(CC(C3)C1)C2)C(=O)Nc1c[nH]c2ncc(F)cc12 [Compound 105, N^1-(adamantan-1-ylmethyl)-N^2-(5-fluoro-1H-pyrrolo[2,3-b]pyridin-3-yl)oxalamide] | 5 to 100 |
| O=C(NCCc1ncc(C(F)(F)F)cc1Cl)C(=O)Nc1c[nH]c2ccncc12 [Compound 166, N1-(2-(3-chloro-5-(trifluoromethyl)-pyridin-2-yl)ethyl)-N2-(1H-pyrrolo[3,2-c]pyridin-3-yl)oxalamide] | 5 to 100 |
| O=C(Nc1c[nH]c2ncc(F)cc12)C(=O)NC1CCC2(CCCC2)C1 (stereo not shown) [Compound 203] | 5 to 100 |
| O=C(Nc1c[nH]c2ncc(F)cc12)C(=O)N[C@@H]1CCCC2(CCCCC2)C1 (single isomer, unassigned) [Compound 197, N-[5-fluoro-1H-pyrrolo[2,3-b]pyridin-3-yl]-N′-[(2R or 2S)-spiro[5.5]undecan-2-yl]ethanediamide] | 5 to 100 |
| O=C(NCC1(c2cccc(Cl)c2)CC1)C(=O)Nc1c[nH]c2ccncc12 [Compound 129] | 5 to 100 |
| O=C(Nc1c[nH]c2ncc(F)cc12)C(=O)N[C@@H]1CCC2(CCCC2)C1 (single isomer, unassigned) [Compound 200] | 5 to 100 |
| O=C(Nc1c[nH]c2ncc(F)cc12)C(=O)N[C@@H]1CCC2(CCCCC2)C1 (single isomer, unassigned) [Compound 202] | 5 to 100 |
| O=C(NCc1ccc(-c2ccccc2C(F)(F)F)cc1)C(=O)Nc1c[nH]c2cccnc12 [Compound 110, N^1-(1H-pyrrolo[3,2-b]pyridin-3-yl)-N^2-((2′-(trifluoromethyl)-[1,1′-biphenyl]-4-yl)methyl)oxalamide] | 1 to 5 |
| O=C(Nc1ccc(C(F)(F)F)cn1)C(=O)Nc1c[nH]c2ccncc12 [Compound 113, N^1-(1H-pyrrolo[3,2-c]pyridin-3-yl)-N^2-(5-(trifluoromethyl)pyridin-2-yl)oxalamide] | 1 to 5 |

Results, then the compound that gave them:

| EC50 [µM] | SMILES |
| --- | --- |
| 1 to 5 | COc1ccc(CNC(=O)C(=O)Nc2c[nH]c3cccnc23)cc1C(F)(F)F [Compound 144, N1-(4-methoxy-3-(trifluoromethyl)benzyl)-N2-(1H-pyrrolo[3,2-b]pyridin-3-yl)oxalamide] |
| 0.2 to 1 | O=C(NCc1ccc(Cl)c(C(F)(F)F)c1)C(=O)Nc1c[nH]c2ccncc12 [Compound 171, N1-(4-chloro-3-(trifluoromethyl)-benzyl)-N2-(1H-pyrrolo[3,2-c]pyridin-3-yl)oxalamide] |
| 1 to 5 | O=C(NCC12CC3CC(CC(C3)C1)C2)C(=O)Nc1c[nH]c2ccncc12 [Compound 124, N^1-(adamantan-1-ylmethyl)-N^2-(1H-pyrrolo[3,2-c]pyridin-3-yl)oxalamide] |
| 0.2 to 1 | Cc1ccc(CNC(=O)C(=O)Nc2c[nH]c3ccc(Br)nc23)cc1C(F)(F)F [Compound 128] |
| 1 to 5 | Cc1ccc(CNC(=O)C(=O)Nc2c[nH]c3ccc(-c4cnn(C)c4)nc23)cc1C(F)(F)F [Compound 130] |
| 0.2 to 1 | Cc1ccc(CNC(=O)C(=O)Nc2c[nH]c3cc(F)cnc23)cc1C(F)(F)F [Compound 174] |
| 1 to 5 | O=C(NCc1cccc(C(F)(F)F)c1F)C(=O)Nc1c[nH]c2ccncc12 [Compound 170, N1-(2-fluoro-3-(trifluoromethyl)-benzyl)-N2-(1H-pyrrolo[3,2-c]pyridin-3-yl)oxalamide] |
| 1 to 5 | Cc1ccc2[nH]cc(NC(=O)C(=O)Nc3cnc(N4CCC(F)(F)CC4)c(Cl)c3)c2n1 [Compound 195, N-(5-chloro-6-(4,4-difluoropiperidin-1-yl)pyridin-3-yl)-N′-(5-methyl-1H-pyrrolo[3,2-b]pyridin-3-yl)oxalamide] |
| 1 to 5 | Cc1cc(F)c(Cl)cc1NC(=O)C(=O)Nc1c[nH]c2ccncc12 [Compound 162, N1-(5-chloro-4-fluoro-2-methylphenyl)-N2-(1H-pyrrolo[3,2-c]pyridin-3-yl)oxalamide] |
| 0.2 to 1 | O=C(NCc1ccc(F)c(OC(F)(F)F)c1)C(=O)Nc1c[nH]c2ccncc12 [Compound 148, N1-(4-fluoro-3-(trifluoromethoxy)-benzyl)-N2-(1H-pyrrolo[3,2-c]pyridin-3-yl)oxalamide] |
| 0.2 to 1 | Cc1cc(NC(=O)C(=O)Nc2c[nH]c3cccnc23)cc(C(F)(F)F)c1 [Compound 107, N^1-(3-methyl-5-(trifluoromethyl)phenyl)-N^2-(1H-pyrrolo[3,2-b]pyridin-3-yl)oxalamide] |
| 0.2 to 1 | O=C(Nc1ccc(C(F)(F)F)c(Cl)c1)C(=O)Nc1c[nH]c2ccncc12 [Compound 216] |
| 1 to 5 | O=C(NCc1ccc(Cl)cc1C(F)(F)F)C(=O)Nc1c[nH]c2cccnc12 [Compound 140, N1-(4-chloro-2-(trifluoromethyl)benzyl)-N2-(1H-pyrrolo[3,2-b]pyridin-3-yl)oxalamide] |
| 0.2 to 1 | Cc1ccc(CNC(=O)C(=O)Nc2c[nH]c3cccnc23)cc1C(F)(F)F [Compound 109, N^1-(4-methyl-3-(trifluoromethyl)benzyl)-N^2-(1H-pyrrolo[3,2-b]pyridin-3-yl)oxalamide] |
| 0.2 to 1 | O=C(NCc1ccc(Cl)c(OC(F)(F)F)c1)C(=O)Nc1c[nH]c2ccncc12 [Compound 212] |
| 0.2 to 1 | O=C(NCc1ccc(Cl)cc1C(F)(F)F)C(=O)Nc1c[nH]c2ccncc12 [Compound 167, N1-(4-chloro-2-(trifluoromethyl)-benzyl)-N2-(1H-pyrrolo[3,2-c]pyridin-3-yl)oxalamide] |
| 1 to 5 | O=C(Nc1ccc(C(F)(F)F)cc1)C(=O)Nc1c[nH]c2ncc(F)cc12 [Compound 125] |
| 1 to 5 | O=C(Nc1ccc(C2CCCCC2)nc1)C(=O)Nc1c[nH]c2ncc(F)cc12 [Compound 102, N^1-(6-cyclohexyl-pyridin-3-yl)-N^2-(5-fluoro-1H-pyrrolo[2,3-b]pyridin-3-yl)oxalamide] |
| 0.2 to 1 | O=C(NCCc1ccc(C(F)(F)F)cc1)C(=O)Nc1c[nH]c2ccncc12 [Compound 153, N1-(1H-pyrrolo[3,2-c]pyridin-3-yl)-N2-(4-(trifluoromethyl)-phenethyl)-oxalamide] |
| 0.2 to 1 | COc1ccc(CNC(=O)C(=O)Nc2c[nH]c3ccncc23)cc1C(F)(F)F [Compound 165, N1-(4-methoxy-3-(trifluoromethyl)-benzyl)-N2-(1H-pyrrolo[3,2-c]pyridin-3-yl)oxalamide] |

Same assay, conditions: 15 μM 2′3′cGAMP, 24 h, numeric bounds

| EC50 [µM] | SMILES |
| --- | --- |
| > 30 | COc1ccc(CNC(=O)C(=O)Nc2c[nH]c3ccncc23)cc1Cl [Compound 168, N1-(3-chloro-4-methoxybenzyl)-N2-(1H-pyrrolo[3,2-c]pyridin-3-yl)oxalamide] |
| > 30 | O=C(NCC1CCc2ccccc2O1)C(=O)Nc1c[nH]c2cccnc12 (stereo not shown) [Compound 132, N1-(chroman-2-ylmethyl)-N2-(1H-pyrrolo[3,2-b]pyridin-3-yl)oxalamide] |
| > 30 | O=C(NCCC1(C(F)(F)F)CC1)C(=O)Nc1c[nH]c2ccncc12 [Compound 161, N1-(1H-pyrrolo[3,2-c]pyridin-3-yl)-N2-(2-(1-(trifluoromethyl)-cyclopropyl)-ethyl)oxalamide] |
| > 30 | O=C(NCC1(c2ccccc2)CC1)C(=O)Nc1c[nH]c2ccncc12 [Compound 156, N1-((1-phenylcyclopropyl)-methyl)-N2-(1H-pyrrolo[3,2-c]pyridin-3-yl)oxalamide] |
| > 30 | O=C(Nc1ccc(OCC(F)(F)F)nc1)C(=O)Nc1c[nH]c2cccnc12 [Compound 150, N1-(1H-pyrrolo[3,2-b]pyridin-3-yl)-N2-(6-(2,2,2-trifluoroethoxy)pyridin-3-yl)oxalamide] |
| > 30 | O=C(NCCc1cccc(C(F)(F)F)c1)C(=O)Nc1c[nH]c2cccnc12 [Compound 149, N1-(1H-pyrrolo[3,2-b]pyridin-3-yl)-N2-(3-(trifluoromethyl)phenethyl)oxalamide] |
| > 30 | O=C(NCCOc1ccc(C(F)(F)F)cc1)C(=O)Nc1c[nH]c2cccnc12 [Compound 133, N1-(1H-pyrrolo[3,2-b]pyridin-3-yl)-N2-(2-(4-(trifluoromethyl)phenoxy)ethyl)oxalamide] |
| > 30 | O=C(NCC1CCCC(F)(F)C1)C(=O)Nc1c[nH]c2ccncc12 (stereo not shown) [Compound 146, N1-((3,3-difluorocyclohexyl)-methyl)-N2-(1H-pyrrolo[3,2-c]pyridin-3-yl)oxalamide] |
| > 30 | O=C(NCC(F)(F)c1ccccc1)C(=O)Nc1c[nH]c2ccncc12 [Compound 163, N1-(2,2-difluoro-2-phenylethyl)-N2-(1H-pyrrolo[3,2-c]pyridin-3-yl)oxalamide] |

From US20230002373A1, “COMPOUNDS AND COMPOSITIONS FOR TREATING CONDITIONS ASSOCIATED WITH STING ACTIVITY” (IFM Due, Inc., priority 2019, published 2023)
